The values below come from patent US7498353B2, “Heterocyclic anti-viral compounds comprising metabolizable moieties and their uses” (priority 2005, dated 2009).

pIC50: −log10 of the molar value. Read-outs that look alike come from different tables or passages of the source. Where only a bound is given, the exact number is not on record here.

For this assay, the system named is HCV NS5A protein in 9-13 replicon cells. The experiment in a line: Quantitative Western blot replicon assay (HEPC_REPLICON-ICWESTERN). The assay is classed as cell-based, Hepatitis C virus (HCV). The note with it: Hepatitis C virus, read-out: HEPC_REPLICON-ICWESTERN Result Value (IC50). The method, then:
Alternatively, the inhibitory activity of the metabolically active agents of the prodrugs can be confirmed using a quantitative Western immunoblot assay utilizing antibodies specific for HCV non-structural proteins, such as NS3, NS4A NS5A and NS5B. In one embodiment of this assay, replicon cells are treated with varying concentrations of test prodrug to determine the concentration of the metabolically active agent of the test prodrug that yields a 50% reduction in the amount of a non-structural protein produced as compared to a control sample (IC50). A single non-structural protein may be quantified or multiple non-structural proteins may be quantified. Antibodies suitable for carrying out such immunoblot assays are available commercially (e.g., from BIODESIGN International, Saco, Me.).
Certain prodrugs of the invention, which may inhibit HCV translation or replication prior to metablism and/or are metabolized into active agents, were also tested for their ability to inhibit HCV replication using a quantitative Western blot analysis with antibodies specific for the HCV NS5A or other non-structural proteins. Actively dividing 9-13 replicon cells were seeded into 6-well plates at a density of 1×10^5 cells/well in a volume of 2 ml/well and incubated at 37° C. and 5% CO2 for 24 hours. Various concentrations of test prodrugs (in a volume of 10 ul) were added to the wells and the cells incubated for another 48 hours. Protein samples were prepared from the cultured cells, resolved on a SDS-PAGE gel and transferred to a nitrocellulose membrane. The membrane was blocked with 5% non-fat milk in PBS for 1 hour at room temperature. Primary antibody (anti NS5A antibody; BIODESIGN International, Saco, Me.) incubation was performed for 1 hour at room temperature, after which the membrane was washed 3 times (for 15 min per time) with PBST (PBS plus 0.1% Tween 20). Horseradish peroxidase conjugated secondary antibody incubation was performed for 1 hour at room temperature and the membrane was washed 3 times (for 15 min per time) with PBST. The membrane was then soaked in substrate solution (Pierce) and exposed to a film or quantified using an imager. In this assay, the amount of test prodrug that is believed to be transformed into an active agent under the given conditions that yielded a 50% reduction in the amount of NS5A protein translated as compared to a control sample (IC50) was determined.
A general note: Immunoblotting shows a protein as a band on a membrane.

Where [1] appears, read: 9-13 replicon cells, 50% reduction in NS5A protein.

A word on the pIC50: it is the IC50 on a negative log10 scale, so that one unit is a factor of ten.

Regarding `O=C(NCCN(C(=O)C(Cl)Cl)c1cccc(-c2cc(-c3c(Cl)cccc3Cl)no2)c1)[C@@H]1CC(O)CN1` (stereo partly drawn) [Cpd. No. 34, (2S)-N-(2-(2,2-Dichloro-N-(3-(3-(2,6-dichlorophenyl)isoxazol-5-yl)phenyl)acetamido)ethyl)-4-hydroxypyrrolidine-2-carboxamide], the pIC50 under setting [1] was less than 4.70. For the compound `N#CCCN(C(=O)C(Cl)Cl)c1cccc(-c2cc(-c3c(Cl)cccc3Cl)no2)c1` [Cpd. No. 13, 2,2-Dichloro-N-(2-cyanoethyl)-N-(3-(3-(2,6-dichlorophenyl)isoxazol-5-yl)phenyl)acetamide], the pIC50 under setting [1] was less than 4.70. Regarding `CC(C)[C@@H](CN(C(=O)C(Cl)Cl)c1cccc(-c2cc(-c3c(Cl)cccc3Cl)no2)c1)NC(=O)[C@H](N)c1ccccc1` [Cpd. No. 41, N-((S)-2-((R)-2-Amino-2-phenylacetamido)-3-methylbutyl)-2,2-dichloro-N-(3-(3-(2,6-dichlorophenyl)isoxazol-5-yl)phenyl)acetamide], under setting [1], the pIC50 was less than 4.70.

On to `CC(C)[C@@H](CN(C(=O)C(Cl)Cl)c1cccc(-c2cc(-c3c(Cl)cccc3Cl)no2)c1)NC(=O)[C@H](NC(=O)OC(C)(C)C)c1ccccc1` [Cpd. No. 23, tert-Butyl (R)-2-((S)-1-(2,2-Dichloro-N-(3-(3-(2,6-dichlorophenyl)isoxazol-5-yl)phenyl)acetamido)-3-methylbutan-2-ylamino)-2-oxo-1-phenylethylcarbamate], for which the pIC50 under setting [1] was 4.70 to 6.00. The same measure, in the same setting: under `CNCC(=O)NCCN(C(=O)C(Cl)Cl)c1cccc(-c2cc(-c3c(Cl)cccc3Cl)no2)c1` [Cpd. No. 36, 2,2-Dichloro-N-(3-(3-(2,6-dichlorophenyl)isoxazol-5-yl)phenyl)-N-(2-(2-(methylamino)acetamido)ethyl)acetamide] stands 4.70 to 6.00.

`CC[C@H](C)[C@H](N)C(=O)NCCN(C(=O)C(Cl)Cl)c1cccc(-c2cc(-c3c(Cl)cccc3Cl)no2)c1` [Cpd. No. 38, (2S,3S)-2-Amino-N-(2-(2,2-dichloro-N-(3-(3-(2,6-dichlorophenyl)isoxazol-5-yl)phenyl)acetamido)ethyl)-3-methylpentanamide]: the pIC50 under setting [1] was 4.70 to 6.00.

In the case of `CC(C)(C)OC(=O)N1CC(O)C[C@H]1C(=O)NCCN(C(=O)C(Cl)Cl)c1cccc(-c2cc(-c3c(Cl)cccc3Cl)no2)c1` (stereo partly drawn) [Cpd. No. 33, (2S)-tert-Butyl 2-(2-(2,2-Dichloro-N-(3-(3-(2,6-dichlorophenyl)isoxazol-5-yl)phenyl)acetamido)ethylcarbamoyl)-4-hydroxypyrrolidine-1-carboxylate], the pIC50 under setting [1] was less than 4.70. For the compound `CC(C)(C)OC(=O)N[C@H](C(=O)NCCN(C(=O)C(Cl)Cl)c1cccc(-c2cc(-c3c(Cl)cccc3Cl)no2)c1)c1ccccc1` [Cpd. No. 17, (S)-tert-Butyl 2-(2-(2,2-Dichloro-N-(3-(3-(2,6-dichlorophenyl)isoxazol-5-yl)phenyl)acetamido)ethylamino)-2-oxo-1-phenylethylcarbamate], the pIC50 under setting [1] is less than 4.70.

For `CC(C)[C@@H](CN(C(=O)C(Cl)Cl)c1cccc(-c2cc(-c3c(Cl)cccc3Cl)no2)c1)NC(=O)[C@@H](N)c1ccccc1` [Cpd. No. 40, N-((S)-2-((S)-2-Amino-2-phenylacetamido)-3-methylbutyl)-2,2-dichloro-N-(3-(3-(2,6-dichlorophenyl)isoxazol-5-yl)phenyl)acetamide], the negative logarithm of the IC50 (pIC50) under setting [1] was less than 4.70. The same measure, in the same setting: the result for `N[C@@H](C(=O)NCCN(C(=O)C(Cl)Cl)c1cccc(-c2cc(-c3c(Cl)cccc3Cl)no2)c1)c1ccccc1` [Cpd. No. 20, (R)-N-(2-(2-Amino-2-phenylacetamido)ethyl)-2,2-dichloro-N-(3-(3-(2,6-dichlorophenyl)isoxazol-5-yl)phenyl)acetamide] reads 4.70 to 6.00; that for `CC(C)(C)OC(=O)CC[C@H](NC(=O)OC(C)(C)C)C(=O)NCCN(C(=O)C(Cl)Cl)c1cccc(-c2cc(-c3c(Cl)cccc3Cl)no2)c1` [Cpd. No. 32, (S)-tert-Butyl 4-(tert-Butoxycarbonylamino)-5-(2-(2,2-dichloro-N-(3-(3-(2,6-dichlorophenyl)isoxazol-5-yl)phenyl)acetamido)ethylamino)-5-oxopentanoate], less than 4.70. On to `CCOP(=O)(CCC(=O)CCN(C(=O)C(Cl)Cl)c1ccnc(-c2cc(-c3c(Cl)cccc3Cl)no2)c1)OCC` [Cpd. No. 11, Diethyl 5-(2,2-Dichloro-N-(2-(3-(2,6-dichlorophenyl)isoxazol-5-yl)pyridin-4-yl)acetamido)-3-oxopentylphosphonate], for which the pIC50 was greater than 6.00. Regarding `CCOC(=O)CN(C(=O)C(Cl)Cl)c1ccnc(-c2cc(-c3c(Cl)cccc3Cl)no2)c1` [Cpd. No. 8, Ethyl 2-(2,2-Dichloro-N-(2-(3-(2,6-dichlorophenyl)isoxazol-5-yl)pyridin-4-yl)acetamido)acetate], the negative logarithm of the IC50 (pIC50) under setting [1] was 4.70 to 6.00. On to `CC(C)[C@@H](CN(C(=O)C(Cl)Cl)c1cccc(-c2cc(-c3c(Cl)cccc3Cl)no2)c1)NC(=O)C1CC(O)CN1C(=O)OC(C)(C)C` (stereo partly drawn) [Cpd. No. 24, tert-Butyl 2-((S)-1-(2,2-Dichloro-N-(3-(3-(2,6-dichlorophenyl)isoxazol-5-yl)phenyl)acetamido)-3-methylbutan-2-ylcarbamoyl)-4-hydroxypyrrolidine-1-carboxylate], for which the pIC50 under setting [1] was 4.70 to 6.00. Regarding `COC(=O)CCN(C(=O)C(Cl)Cl)c1cccc(-c2cc(-c3c(Cl)cccc3Cl)no2)c1` [Cpd. No. 12, Methyl 3-(2,2-Dichloro-N-(3-(3-(2,6-dichlorophenyl)isoxazol-5-yl)phenyl)acetamido)propanoate], the pIC50 under setting [1] is less than 4.70. Same read-out and setting: the result for `NC(CCC(=O)O)C(=O)CCN(C(=O)C(Cl)Cl)c1ccnc(-c2cc(-c3c(Cl)cccc3Cl)no2)c1` (centres unmarked) [Cpd. No. 4, 4-Amino-7-(2,2-dichloro-N-(2-(3-(2,6-dichlorophenyl)isoxazol-5-yl)pyridin-4-yl)acetamido)-5-oxoheptanoic Acid] reads greater than 6.00; that for `CCC(C)OCN(C(=O)C(Cl)Cl)c1ccnc(-c2cc(-c3c(Cl)cccc3Cl)no2)c1` (centres unmarked) [Cpd. No. 10, N-(sec-Butoxymethyl)-2,2-dichloro-N-(2-(3-(2,6-dichlorophenyl)isoxazol-5-yl)pyridin-4-yl)acetamide], 4.70 to 6.00; that for `CNCC(=O)N[C@H](CN(C(=O)C(Cl)Cl)c1cccc(-c2cc(-c3c(Cl)cccc3Cl)no2)c1)C(C)C` [Cpd. No. 43, (S)-2,2-Dichloro-N-(3-(3-(2,6-dichlorophenyl)isoxazol-5-yl)phenyl)-N-(3-methyl-2-(2-(methylamino)acetamido)butyl)acetamide], 4.70 to 6.00. Same read-out and setting: under `CC(C)[C@H](N)C(=O)NCCN(C(=O)C(Cl)Cl)c1cccc(-c2cc(-c3c(Cl)cccc3Cl)no2)c1` [Cpd. No. 37, (S)-2-Amino-N-(2-(2,2-dichloro-N-(3-(3-(2,6-dichlorophenyl)isoxazol-5-yl)phenyl)acetamido)ethyl)-3-methylbutanamide] stands 4.70 to 6.00; under `N[C@@H](CCC(=O)O)C(=O)NCCN(C(=O)C(Cl)Cl)c1cccc(-c2cc(-c3c(Cl)cccc3Cl)no2)c1` [Cpd. No. 35, (S)-4-Amino-5-(2-(2,2-dichloro-N-(3-(3-(2,6-dichlorophenyl)isoxazol-5-yl)phenyl)acetamido)ethylamino)-5-oxopentanoic Acid], less than 4.70.
